Converted amounts (≈) assume the structure as drawn.
Legend:
Enterococcus faecium [1] = experiment: Antimicrobial activity against vancomycin-resistant Enterococcus faecium by broth dilution method; assay type: functional
Staphylococcus aureus [2] = experiment: Antimicrobial activity against vancomycin-nonsusceptible Staphylococcus aureus by broth dilution method; assay type: functional
Streptococcus sp = experiment: Antimicrobial activity against streptococcal sp. by broth dilution method
Streptococcus viridans = experiment: Antimicrobial activity against Streptococcus viridans by broth dilution method; assay type: functional
Staphylococcus aureus [3] = experiment: Antimicrobial activity against methicillin-resistant Staphylococcus aureus by broth dilution method; assay type: functional; details: Staphylococcus aureus
Haemophilus influenzae [4] = experiment: Antimicrobial activity against beta-lactamase positive Haemophilus influenzae by broth dilution method; assay type: functional
Streptococcus pneumoniae [5] = experiment: Antimicrobial activity against Streptococcus pneumoniae by broth dilution method; assay type: functional
Staphylococcus aureus [6] = experiment: Antimicrobial activity against methicillin-susceptible Staphylococcus aureus by broth dilution method; assay type: functional
Streptococcus pneumoniae [7] = experiment: Antimicrobial activity against penicillin-resistant Streptococcus pneumoniae by broth dilution method; assay type: functional
Haemophilus influenzae [8] = experiment: Antimicrobial activity against beta-lactamase negative Haemophilus influenzae by broth dilution method; assay type: functional
Streptococcus pneumoniae [9] = experiment: Antimicrobial activity against penicillin-susceptible Streptococcus pneumoniae by broth dilution method; assay type: functional
Staphylococcus aureus [10] = experiment: Antimicrobial activity against linezolid-resistant Staphylococcus aureus by broth dilution method; assay type: functional
Enterococcus faecalis [11] = experiment: Antimicrobial activity against vancomycin-resistant Enterococcus faecalis by broth dilution method; assay type: functional
Enterococcus sp. = experiment: Antimicrobial activity against Enterococcus by broth dilution method; assay type: functional
Moraxella catarrhalis = experiment: Antimicrobial activity against Moraxella catarrhalis by broth dilution method; assay type: functional
Staphylococcus sp. [12] = experiment: Antimicrobial activity against Staphylococcus sp. by broth dilution method; assay type: functional
Staphylococcus aureus [13] = experiment: Antimicrobial activity against Staphylococcus aureus by broth dilution method; assay type: functional
Corynebacterium jeikeium = experiment: Antimicrobial activity against Corynebacterium jeikeium by broth dilution method; assay type: functional
Staphylococcus sp. [14] = experiment: Antimicrobial activity against methicillin-susceptible coagulase-negative Staphylococcus by broth dilution method; assay type: functional
Listeria monocytogenes = experiment: Antimicrobial activity against Listeria monocytogenes by broth dilution method; assay type: functional
Streptococcus pneumoniae [15] = experiment: Antimicrobial activity against penicillin-intermediate Streptococcus pneumoniae by broth dilution method; assay type: functional
Enterococcus faecalis [16] = experiment: Antimicrobial activity against vancomycin-susceptible Enterococcus faecalis by broth dilution method; assay type: functional
Haemophilus influenzae [17] = experiment: Antimicrobial activity against ampicillin-nonsusceptible beta-lactamase negative Haemophilus influenzae by broth dilution method; assay type: functional
Haemophilus influenzae [18] = experiment: Antimicrobial activity against Haemophilus influenzae by broth dilution method; assay type: functional
Staphylococcus sp. [19] = experiment: Antimicrobial activity against methicillin-resistant coagulase-negative Staphylococcus by broth dilution method; assay type: functional
Enterococcus faecium [20] = experiment: Antimicrobial activity against vancomycin-susceptible Enterococcus faecium by broth dilution method; assay type: functional

CC(=O)NC[C@H]1CN(c2ccc(N3CCOCC3)c(F)c2)C(=O)O1 [LINEZOLID]
MBC (Enterococcus faecium [1]): > 4 µg/mL | MIC50 (Enterococcus faecium [1]): 2 µg/mL (≈ 5.93 µM) | MIC90 (Enterococcus faecium [1]): 4 µg/mL (≈ 11.9 µM) | MBC50 (Staphylococcus aureus [2]): 2 µg/mL (≈ 5.93 µM) | MBC90 (Staphylococcus aureus [2]): 4 µg/mL (≈ 11.9 µM) | MBC (Staphylococcus aureus [2]; Staphylococcus aureus): 2 µg/mL (≈ 5.93 µM) | MIC50 (Staphylococcus aureus [2]; Staphylococcus aureus): 2 µg/mL (≈ 5.93 µM) | MIC90 (Staphylococcus aureus [2]; Staphylococcus aureus): 4 µg/mL (≈ 11.9 µM) | MBC50 (Streptococcus sp): 8 µg/mL (≈ 23.7 µM) | MBC90 (Streptococcus sp): >8 µg/mL | MBC (Streptococcus sp; Streptococcus sp.): > 2 µg/mL | MIC50 (Streptococcus sp; Streptococcus sp.): 1 µg/mL (≈ 2.96 µM) | MIC90 (Streptococcus sp; Streptococcus sp.): 2 µg/mL (≈ 5.93 µM) | MIC50 (Streptococcus viridans): 2 µg/mL (≈ 5.93 µM) | MIC90 (Streptococcus viridans): 2 µg/mL (≈ 5.93 µM) | MIC50 (Staphylococcus aureus [3]): 2 µg/mL (≈ 5.93 µM) | MIC90 (Staphylococcus aureus [3]): 4 µg/mL (≈ 11.9 µM) | MBC50 (Haemophilus influenzae [4]): >8 µg/mL | MBC90 (Haemophilus influenzae [4]): >8 µg/mL | MBC (Haemophilus influenzae [4]; Haemophilus influenzae): > 8 µg/mL | MIC (Haemophilus influenzae [4]; Haemophilus influenzae): > 8 µg/mL | MIC50 (Haemophilus influenzae [4]; Haemophilus influenzae): > 8 µg/mL | MIC90 (Haemophilus influenzae [4]; Haemophilus influenzae, read-out: MIC90): > 8 µg/mL | MBC50 (Streptococcus pneumoniae [5]): 4 µg/mL (≈ 11.9 µM) | MBC90 (Streptococcus pneumoniae [5]): 8 µg/mL (≈ 23.7 µM) | MBC (Streptococcus pneumoniae [5]; Streptococcus pneumoniae): > 2 µg/mL | MIC50 (Streptococcus pneumoniae [5]; Streptococcus pneumoniae): 1 µg/mL (≈ 2.96 µM) | MIC90 (Streptococcus pneumoniae [5]; Streptococcus pneumoniae): 2 µg/mL (≈ 5.93 µM) | MBC50 (Staphylococcus aureus [6]): >8 µg/mL | MBC90 (Staphylococcus aureus [6]): >8 µg/mL | MBC (Staphylococcus aureus [6]; Staphylococcus aureus): > 4 µg/mL | MIC50 (Staphylococcus aureus [6]; Staphylococcus aureus): 2 µg/mL (≈ 5.93 µM) | MIC90 (Staphylococcus aureus [6]; Staphylococcus aureus): 2 µg/mL (≈ 5.93 µM) | MBC (Streptococcus pneumoniae [7]): 4 µg/mL (≈ 11.9 µM) | MIC50 (Streptococcus pneumoniae [7]): 1 µg/mL (≈ 2.96 µM) | MIC90 (Streptococcus pneumoniae [7]): 2 µg/mL (≈ 5.93 µM) | MBC50 (Haemophilus influenzae [8]): >8 µg/mL | MBC90 (Haemophilus influenzae [8]): >8 µg/mL | MBC (Haemophilus influenzae [8]; Haemophilus influenzae): > 8 µg/mL | MIC50 (Haemophilus influenzae [8]; Haemophilus influenzae): > 8 µg/mL | MIC90 (Haemophilus influenzae [8]; Haemophilus influenzae): > 8 µg/mL | MBC50 (Streptococcus pneumoniae [9]): 4 µg/mL (≈ 11.9 µM) | MBC90 (Streptococcus pneumoniae [9]): 8 µg/mL (≈ 23.7 µM) | MBC (Streptococcus pneumoniae [9]; Streptococcus pneumoniae): > 2 µg/mL | MIC50 (Streptococcus pneumoniae [9]; Streptococcus pneumoniae): 1 µg/mL (≈ 2.96 µM) | MIC90 (Streptococcus pneumoniae [9]; Streptococcus pneumoniae): 2 µg/mL (≈ 5.93 µM) | MBC (Staphylococcus aureus [10]): > 8 µg/mL | MIC50 (Staphylococcus aureus [10]): > 8 µg/mL | MIC90 (Staphylococcus aureus [10]): > 8 µg/mL | MIC50 (Enterococcus faecalis [11]): 2 µg/mL (≈ 5.93 µM) | MIC90 (Enterococcus faecalis [11]): 2 µg/mL (≈ 5.93 µM) | MBC50 (Enterococcus sp.): >8 µg/mL | MBC90 (Enterococcus sp.): >8 µg/mL | MBC (Enterococcus sp.; Enterococcus sp.): > 4 µg/mL | MIC50 (Enterococcus sp.; Enterococcus sp.): 2 µg/mL (≈ 5.93 µM) | MIC90 (Enterococcus sp.; Enterococcus sp.): 2 µg/mL (≈ 5.93 µM) | MIC (Moraxella catarrhalis): 8 µg/mL (≈ 23.7 µM) | MIC50 (Moraxella catarrhalis): 8 µg/mL (≈ 23.7 µM) | MIC90 (Moraxella catarrhalis): 8 µg/mL (≈ 23.7 µM) | MBC50 (Staphylococcus sp. [12]): 8 µg/mL (≈ 23.7 µM) | MBC90 (Staphylococcus sp. [12]): >8 µg/mL | MBC (Staphylococcus sp. [12]; Staphylococcus sp.): > 2 µg/mL | MIC50 (Staphylococcus sp. [12]; Staphylococcus sp.): 2 µg/mL (≈ 5.93 µM) | MIC90 (Staphylococcus sp. [12]; Staphylococcus sp.): 2 µg/mL (≈ 5.93 µM) | MBC50 (Staphylococcus aureus [13]): 8 µg/mL (≈ 23.7 µM) | MBC90 (Staphylococcus aureus [13]): >8 µg/mL | MBC (Staphylococcus aureus [13]; Staphylococcus aureus): > 2 µg/mL | MIC50 (Staphylococcus aureus [13]; Staphylococcus aureus): 2 µg/mL (≈ 5.93 µM) | MIC90 (Staphylococcus aureus [13]; Staphylococcus aureus): 2 µg/mL (≈ 5.93 µM) | MIC50 (Corynebacterium jeikeium): 1 µg/mL (≈ 2.96 µM) | MIC90 (Corynebacterium jeikeium): 1 µg/mL (≈ 2.96 µM) | MBC50 (Staphylococcus sp. [14]): >8 µg/mL | MBC90 (Staphylococcus sp. [14]): >8 µg/mL | MBC (Staphylococcus sp. [14]; Staphylococcus sp.): > 2 µg/mL | MIC50 (Staphylococcus sp. [14]; Staphylococcus sp.): 1 µg/mL (≈ 2.96 µM) | MIC90 (Staphylococcus sp. [14]; Staphylococcus sp.): 2 µg/mL (≈ 5.93 µM) | MIC (Listeria monocytogenes): 2 µg/mL (≈ 5.93 µM) | MIC50 (Listeria monocytogenes): 2 µg/mL (≈ 5.93 µM) | MIC90 (Listeria monocytogenes): 2 µg/mL (≈ 5.93 µM) | MBC50 (Streptococcus pneumoniae [15]): 4 µg/mL (≈ 11.9 µM) | MBC90 (Streptococcus pneumoniae [15]): 8 µg/mL (≈ 23.7 µM) | MBC (Streptococcus pneumoniae [15]; Streptococcus pneumoniae): > 2 µg/mL | MIC50 (Streptococcus pneumoniae [15]; Streptococcus pneumoniae): 1 µg/mL (≈ 2.96 µM) | MIC90 (Streptococcus pneumoniae [15]; Streptococcus pneumoniae): 2 µg/mL (≈ 5.93 µM) | MBC50 (Enterococcus faecalis [16]): >8 µg/mL | MBC90 (Enterococcus faecalis [16]): >8 µg/mL | MBC (Enterococcus faecalis [16]; Enterococcus faecalis): > 8 µg/mL | MIC50 (Enterococcus faecalis [16]; Enterococcus faecalis): 2 µg/mL (≈ 5.93 µM) | MIC90 (Enterococcus faecalis [16]; Enterococcus faecalis): 2 µg/mL (≈ 5.93 µM) | MBC50 (Haemophilus influenzae [17]): >8 µg/mL | MBC90 (Haemophilus influenzae [17]): >8 µg/mL | MBC (Haemophilus influenzae [17]; Haemophilus influenzae): > 8 µg/mL | MIC (Haemophilus influenzae [17]; Haemophilus influenzae): > 8 µg/mL | MIC50 (Haemophilus influenzae [17]; Haemophilus influenzae): > 8 µg/mL | MIC90 (Haemophilus influenzae [17]; Haemophilus influenzae): > 8 µg/mL | MBC50 (Haemophilus influenzae [18]): >8 µg/mL | MBC90 (Haemophilus influenzae [18]): >8 µg/mL | MBC (Haemophilus influenzae [18]; Haemophilus influenzae): > 8 µg/mL | MIC50 (Haemophilus influenzae [18]; Haemophilus influenzae): > 8 µg/mL | MIC90 (Haemophilus influenzae [18]; Haemophilus influenzae): > 8 µg/mL | MBC (Staphylococcus sp. [19]): > 8 µg/mL | MIC50 (Staphylococcus sp. [19]): 1 µg/mL (≈ 2.96 µM) | MIC90 (Staphylococcus sp. [19]): 4 µg/mL (≈ 11.9 µM) | MBC50 (Enterococcus faecium [20]): >8 µg/mL | MBC90 (Enterococcus faecium [20]): >8 µg/mL | MBC (Enterococcus faecium [20]; Enterococcus faecium): > 8 µg/mL | MIC (Enterococcus faecium [20]; Enterococcus faecium): 2 µg/mL (≈ 5.93 µM) | MIC50 (Enterococcus faecium [20]; Enterococcus faecium): 2 µg/mL (≈ 5.93 µM) | MIC90 (Enterococcus faecium [20]; Enterococcus faecium): 2 µg/mL (≈ 5.93 µM)

— ChEMBL document CHEMBL1255467, “Comparative in vitro antimicrobial activities of torezolid (TR-700), the active moiety of a new oxazolidinone, torezolid phosphate (TR-701), determination of tentative disk diffusion interpretive criteria, and quality control ranges” (2010)
